Test results from US6841661B2, “Glycopeptide antibacterial compounds, compositions containing same and methods of using same” (Princeton Univerisity, priority 1999, dated 2005).
≈ marks a conversion by molar mass, not a printed value. Read-outs that look alike come from different tables or passages of the source.

Columns and labels:
[1] = tested on: CL 4931, CL 5053, CL 5242 and CL 4877; assay type: cell-based, E. faecium, E. faecalis
Outline: (§1)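 NCCLS M7-A4-based broth microdilution with twofold serial dilutions, incubated at 35° C; medium BHI for enterococci and VISA/MRSA, cation-adjusted Mueller-Hinton for E. coli. Inoculum about 1-5×10^6 CFU/ml (enterococci) or 3-7×10^5 CFU/ml (others); MIC is lowest concentration with no visible growth, read at 18-20 hr for E. coli, 22-24 hr otherwise.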

[2] = tested on: Staphylococcus aureus strain MB2985; assay: In vivo mouse methicillin-sensitive Staphylococcus aureus septicemia protection; parameters: species or system ICR female mice
Description: Selected compounds of the invention are tested in an in vivo mouse model. Single dose subcutaneous antibiotic protection from septicemic infections is measured as described by Gill, C. J., J. J. Jackson, L. Gerckens, B. Pelak, R. Thompson, J. Sundelof, H. Kropp and H. Rosen. Antimicrob. Agents Chemother. 42:1996-2001 (1998). Survival is monitored for seven days. ED50's and LD50's are determined by the method of Knudsen and Curtis. J. Am. Stat. Assoc. 42:282-296 (1947). Septicemia is induced in 20 gram ICR (derived from CD-I) female mice by intraperitoneal infection with Staphylococcus aureus strain MB2985. Infection is given i.p. in Brain Heart Broth (BHB) at an infectious inoculum of 1.8×10^7 cfu/mouse. Drug is administered subcutaneously immediately after the infection is initiated.

[3] = tested on: E. faecalis CL 4877 (VanB); assay: microbe, parasite or virus in culture; assay type: cell-based; conditions: for MIC, CL4877: E. faecalis CL 4877 (VanB)
Outline: as §1

VISA/MRSA CL 5706 = assay: In vitro MIC panel assay (NCCLS broth microdilution); assay type: cell-based, S. aureus; conditions: Staphylococcus aureus
Description: (§2) National Committee for Clinical Laboratory Standards (NCCLS) guidelines [Methods for Dilution Antimicrobial Susceptibility Tests for Bacteria that Grow Aerobically-Fourth Edition; Approved Standard (NCCLS Document M7-A4, January 1997)] are used to establish the assay, although variations are made to optimize the published method according to the specific needs of the present investigation.
(§3) The test panel currently includes eight enterococci and 13 staphylococci, which are selected based upon their antibiotic susceptibility profiles. The methicillin-sensitive Staphylococcus aureus (MSSA) strain MB2985 (Smith isolate) is used to assesses the potential for serum protein binding of the compounds. The paired Gram-negative strains ASP #49 (envA-) and ASP #50 (envA+) (M. Salvatore/N. Lee) are included to judge membrane effects. Table 3 presents a detailed description of the strains included in the panel, including some of the sources of the strains of bacteria.
(§4) The glycopeptide antibiotic teicoplanin is included whenever possible. […]
(§5) The number of CFU/mL is determined on BHI agar plates, although this is not done routinely because titers of overnight cultures are relatively constant. […]

VISA/MRSA CL 5705 = assay: as above; assay type: cell-based, S. aureus; conditions: Staphylococcus aureus
Description: as §2, §3, §4, §5

MRSA MH 76 = assay: as above; assay type: cell-based, Staphylococcus aureus; conditions: Staphylococcus aureus, MRSA
Description: as §2, §3, §4, §5

S. aureus MB 2985 = assay: MIC by microdilution in Mueller-Hinton broth (in vivo study); assay type: cell-based; conditions: Staphylococcus aureus, MB2985, inoculum 1.4 × 10^5 cfu/mL in cation adjusted MHB, read-out: MIC
Description: The MIC is determined by microdilution in Mueller-Hinton broth (MHB) according to the National Committee for Clinical Laboratory Standards guidelines after incubation for 24 hours. Enterococci are tested in cation-supplemented Mueller-Hinton broth at 1.4×10^5 cfu/ml. MIC is defined as the lowest concentration of antibiotic, which inhibits visible growth.

[4] = tested on: MSSA MB2985 (Smith isolate); assay: In vitro MIC panel assay, without and with Human Serum Albumin; assay type: cell-based, Staphylococcus aureus
Description: as §2, §3, §4, §5

% Plasma Bound = assay type: in vitro ADME
[5] = mouse septicemia, S. aureus 2985 i.p. 1.8 × 10^7 cfu/mouse, single s.c. dose at 0 hr, survival seven days

CN[C@H](CC(C)C)C(=O)N[C@H]1C(=O)N[C@@H](CC(N)=O)C(=O)N[C@H]2C(=O)N[C@H]3C(=O)N[C@H](C(=O)N[C@H](C(=O)O)c4cc(O)cc(O)c4-c4cc3ccc4O)[C@H](O)c3ccc(c(Cl)c3)Oc3cc2cc(c3O[C@@H]2O[C@H](CO)[C@@H](O)[C@H](O)[C@H]2O[C@H]2C[C@](C)(N)[C@H](O)[C@H](C)O2)Oc2ccc(cc2Cl)[C@H]1O [Vancomycin, vancomycin, reference compound]
Mean ([1]; Table 9, mean MIC over CL4931, CL5053, CL5242, CL4877): 1664.0 | Mean ([1]; Table 10, mean MIC over CL4931, CL5053, CL5242, CL4877): 1536.0 | Mean ([1]; mean of CL4931, CL5053, CL5242, CL4877, unit not given): 1664.0 | ED50/MIC ([2]; S. aureus 2985, ratio of s.c. ED50 to MIC): 2.33 | ED50 ([2]; Staphylococcus aureus, MB2985, mouse septicemia, S. aureus 2985 i.p. 1.8 × 10^7 cfu/mouse, single s.c. dose at 0 hr, survival seven days): 1.17 mg/kg | ED0 (s.c.) [2, 5]: ≦0.195 mg/kg | ED100 (s.c.) [2, 5]: 3.125 mg/kg | MIC ([3]; Enterococcus faecalis): 2050 µg/mL (≈ 1410 µM) | MIC, CL4877 ([3]; Table 9): 2050 µg/mL (≈ 1410 µM) | MIC, CL4877 ([3]; Table 10): 2050 µg/mL (≈ 1410 µM) | CL4877 (in vitro testing) ([3]; Tables 7 and 8, unit not given): 2048 | MIC (VISA/MRSA CL 5706): 4 to 8 µg/mL (≈ 2.76 to 5.52 µM) | MIC (VISA/MRSA CL 5705): 2 to 4 µg/mL (≈ 1.38 to 2.76 µM) | MIC (MRSA MH 76): 1 µg/mL (≈ 0.69 µM) | MIC (S. aureus MB 2985): 0.5 µg/mL (≈ 0.345 µM) | MIC ([4]; MSSA MB2985 + HSA, MH II broth ctg. 43 mg/ml Human Serum Albumin Frac. V): 1 µg/mL | N-fold MIC inc. + HSA ([4]; MSSA MB2985, MIC with HSA relative to without): (1) fold | % Plasma Bound (% Plasma Bound): 55%
